In brackets after ≈: the same amount, converted by molar mass. Several values for one entry are separate records, joined by “and”; a condition that tells them apart may be missing. Equal values may be shown once. Read-outs that look alike come from different tables or passages of the source.
How the values were obtained:
[1] = test system: C57BL/6 Diet Induced Obese (DIO) mice; assay: Oral (P.O.) administration study in DIO mice: in vivo activity, body weights; design: species or system mouse; settings: for change in vivo at 2 mg/kg: Mus musculus, po, difference of group mean, read-out: Body weight, %-Diff
Text: The purpose of this study was to assess test articles in the Diet Induced Obese (DIO) mouse.
Male C57BL/6 Diet Induced Obese (DIO) mice were received from Taconic. Animals were acclimated to housing conditions for at least 1 week prior to vehicle acclimation dosing. Animals were acclimated to oral gavage dosing with vehicle once daily for Days 11 through 14 of the predose phase.
At initiation of dosing, animals were 21 to 22 weeks old, and their body weights ranged from 29.8 to 40.1 g.
Dose formulations were administered by oral gavage once daily for 10 days at a dose volume of 2 mL/kg. Doses were based on the most recently recorded scheduled body weight.
Body weights were recorded daily on Days 11 through 14 of the predose phase. Body weights were collected for all animals daily during the dosing phase prior to dosing.
Descriptive statistics (n, mean, standard error of the mean, standard deviation) were completed. Additionally, one-way analysis of variance followed by Dunnett's post-hoc test were performed on body weight (cumulative body weight change), glucose (glucose percent change), and food consumption (cumulative food consumption). Area under the curve (for body weight, cumulative body weight change, daily body weight change, and food consumption) was computed for treatment groups. An appropriate comparison test, such as one-way analysis of variance and Dunnett's, was performed on the group means for the area under the curve computations. Any additional statistical analysis and interpretation of the results were the responsibility of the sponsor.

physchem = assay: physchem
Method: • Test concentration: 100 μM (1% of DMSO) • Test systems: PBS (pH 7.4) • Incubation condition: shaken (1000 rpm) for 1 h at room temperature • Sample size: Duplicates (n=2) • Bioanalytical method: LC-MS/MS

[2] = 2 mg/kg oral gavage once daily, dosing phase Day 1
[3] = 2 mg/kg oral gavage once daily, dosing phase Day 1, N 5
[4] = 2 mg/kg oral gavage once daily, dosing phase Day 2
[5] = 2 mg/kg oral gavage once daily, dosing phase Day 2, N 5
[6] = 2 mg/kg oral gavage once daily, dosing phase Day 3
[7] = 2 mg/kg oral gavage once daily, dosing phase Day 3, N 5
[8] = 2 mg/kg oral gavage once daily, dosing phase Day 4
[9] = 2 mg/kg oral gavage once daily, dosing phase Day 4, N 5
[10] = 2 mg/kg oral gavage once daily, dosing phase Day 5
[11] = 2 mg/kg oral gavage once daily, dosing phase Day 5, N 5
[12] = 2 mg/kg oral gavage once daily, dosing phase Day 6
[13] = 2 mg/kg oral gavage once daily, dosing phase Day 6, N 5
[14] = Day 7, DSNG phase, 2 mg/kg, male, N=5
[15] = Day 8, DSNG phase, 2 mg/kg, male, N=5
[16] = Day 9, DSNG phase, 2 mg/kg, male, N=5
[17] = Day 10, DSNG phase, 2 mg/kg, male, N=5
[18] = Day 11, DSNG phase, 2 mg/kg, male, N=5
[19] = 168 h, Day 7, DSNG phase, 2 mg/kg, male
[20] = 192 h, Day 8, DSNG phase, 2 mg/kg, male
[21] = 216 h, Day 9, DSNG phase, 2 mg/kg, male
[22] = 240 h, Day 10, DSNG phase, 2 mg/kg, male
[23] = 264 h, Day 11, DSNG phase, 2 mg/kg, male
[24] = pH 7.4, aqueous buffer, kinetic from dmso stock, Solubility (μM) Mean, Table 6-B; PBS (pH 7.4), test concentration 100 μM (1% of DMSO), shaken (1000 rpm) 1 h at room temperature, n = 2
[25] = pH 7.4, aqueous buffer, kinetic from dmso stock, Solubility (μM), Table 6-D; PBS (pH 7.4)
[26] = PBS (pH 7.4), pH 7.4, aqueous buffer, kinetic from dmso stock, Solubility (μM) Mean, Table 6-B, test concentration 100 μM (1% of DMSO), shaken (1000 rpm) 1 h at room temperature, n = 2
[27] = PBS (pH 7.4), pH 7.4, aqueous buffer, kinetic from dmso stock, Solubility (μM), Table 6-D

CC1=C(O)C(=O)C=C2C1=CC=C1[C@@]2(C)CC[C@@]2(C)[C@@H]3C[C@](C)(C(=O)O)CC[C@]3(C)CC[C@]12C [ERX1000]
Body weight %-Diff [1, 2]: 0%
Body weight, Mean [1, 3]: 34.2 g
Body weight %-Diff [1, 4]: −1%
Body weight, Mean [1, 5]: 34.0 g
Body weight %-Diff [1, 6]: −2%
Body weight, Mean [1, 7]: 33.1 g
Body weight %-Diff [1, 8]: −3%
Body weight, Mean [1, 9]: 32.5 g
Body weight %-Diff [1, 10]: −5%
Body weight, Mean [1, 11]: 32.1 g
Body weight %-Diff [1, 12]: −6%
Body weight, Mean [1, 13]: 31.4 g
Body weight, Mean [1, 14]: 30.6 g
Body weight, Mean [1, 15]: 30.4 g
Body weight, Mean [1, 16]: 30.3 g
Body weight, Mean [1, 17]: 30.0 g
Body weight, Mean [1, 18]: 29.1 g
change in vivo at 2 mg/kg [1, 19]: -9%
change in vivo at 2 mg/kg [1, 20]: -10%
change in vivo at 2 mg/kg [1, 21]: -9%
change in vivo at 2 mg/kg [1, 22]: -10%
change in vivo at 2 mg/kg [1, 23]: -15%
solubility (physchem; [24]): 3.89 µM (≈ 1.75 µg/mL)
solubility (physchem; [25]): 3.89 µM (≈ 1.75 µg/mL)

CC1=C(O)C(=O)C=C2C1=CC=C1[C@@]2(C)CC[C@@]2(C)[C@@H]3C[C@](C)(C(N)=O)CC[C@]3(C)CC[C@]12C [ERX1006]
Body weight %-Diff [1, 2]: −1%
Body weight, Mean [1, 3]: 34.1 g
Body weight %-Diff [1, 4]: −2%
Body weight, Mean [1, 5]: 33.9 g
Body weight %-Diff [1, 6]: −1%
Body weight, Mean [1, 7]: 33.4 g
Body weight %-Diff [1, 8]: −2%
Body weight, Mean [1, 9]: 32.8 g
Body weight %-Diff [1, 10]: −4%
Body weight, Mean [1, 11]: 32.6 g
Body weight %-Diff [1, 12]: −3%
Body weight, Mean [1, 13]: 32.5 g
Body weight, Mean [1, 14]: 32.0 g
Body weight, Mean [1, 15]: 31.7 g
Body weight, Mean [1, 16]: 31.4 g
Body weight, Mean [1, 17]: 31.2 g
Body weight, Mean [1, 18]: 30.9 g
change in vivo at 2 mg/kg [1, 19]: -4%
change in vivo at 2 mg/kg [1, 20]: -6%
change in vivo at 2 mg/kg [1, 21]: -5%
change in vivo at 2 mg/kg [1, 22]: -7%
change in vivo at 2 mg/kg [1, 23]: -9%
Individual Body Weight, PRED 11 ([1]; individual male DIO mouse of the 2 mg/kg group, pre-dose phase day 11 (baseline)): 37.6 g and 34.5 g and 32.2 g and 35.2 g and 36.7 g
Individual Body Weight, PRED 12 ([1]; individual male DIO mouse of the 2 mg/kg group, pre-dose phase day 12 (baseline)): 38.0 g and 35.2 g and 32.7 g and 34.8 g and 36.8 g
Individual Body Weight, PRED 13 ([1]; individual male DIO mouse of the 2 mg/kg group, pre-dose phase day 13 (baseline)): 37.4 g and 35.4 g and 32.5 g and 34.1 g and 36.3 g
Individual Body Weight, PRED 14 ([1]; individual male DIO mouse of the 2 mg/kg group, pre-dose phase day 14 (baseline)): 38.5 g and 35.4 g and 32.7 g and 34.3 g and 36.9 g
Individual Body Weight, DSNG 1 ([1]; individual male DIO mouse, 2 mg/kg, dosing phase day 1, 2 mg/kg): 35.7 g and 35.0 g and 32.7 g and 32.4 g and 34.9 g
Individual Body Weight, DSNG 2 ([1]; individual male DIO mouse, 2 mg/kg, dosing phase day 2, 2 mg/kg): 35.0 g and 35.6 g and 31.8 g (2×) and 35.2 g
solubility (physchem; [24]): 1.15 µM (≈ 0.517 µg/mL)
solubility (physchem; [25]): 1.15 µM (≈ 0.515 µg/mL)

CC1=C(O)C(=O)C=C2C1=CC=C1[C@@]2(C)CC[C@@]2(C)[C@@H]3C[C@](C)(CO)CC[C@]3(C)CC[C@]12C [ERX1010]
solubility (physchem; [24]): 0.64 µM (≈ 0.279 µg/mL)
solubility (physchem; [25]): 0.644 µM (≈ 0.281 µg/mL)

CC1=C(O)C(=O)C=C2C1=CC=C1[C@@]2(C)CC[C@@]2(C)[C@@H]3C[C@](C)(C(=O)N4CC(O)C4)CC[C@]3(C)CC[C@]12C [ERX1020]
solubility (physchem; [24]): 0.54 µM (≈ 0.273 µg/mL)
solubility (physchem; [25]): 0.54 µM (≈ 0.273 µg/mL)

CC1=C(O)C(=O)C=C2C1=CC=C1[C@@]2(C)CC[C@@]2(C)[C@@H]3C[C@](C)(C(=O)NC(CO)CO)CC[C@]3(C)CC[C@]12C [ERX1029]
solubility (physchem; [24]): 1.61 µM (≈ 0.843 µg/mL)
solubility (physchem; [25]): 1.6 µM (≈ 0.841 µg/mL)

CC(=O)Oc1cc2c(c(C)c1OC(C)=O)C(SC(C)C)C=C1[C@@]2(C)CC[C@@]2(C)[C@@H]3C[C@](C)(C(N)=O)CC[C@]3(C)CC[C@]12C (stereo partly drawn) [ERX1066]
solubility at 1 h (physchem; [26]): 0.63 µM (≈ 0.384 µg/mL)
solubility at 1 h (physchem; [27]): 0.627 µM (≈ 0.383 µg/mL)

COC(=O)[C@]1(C)CC[C@]2(C)CC[C@]3(C)C4=CC=C5C(=CC(=O)C(O)=C5C)[C@]4(C)CC[C@@]3(C)[C@@H]2C1 [ERX1074]
solubility at 1 h (physchem; [24]): 4.19 µM (≈ 1.95 µg/mL)
solubility at 1 h (physchem; [25]): 4.19 µM (≈ 1.95 µg/mL)

CC(=O)Oc1cc2c(c(C)c1OC(C)=O)C(SC(C)=O)C=C1[C@@]2(C)CC[C@@]2(C)[C@@H]3C[C@](C)(C(=O)O)CC[C@]3(C)CC[C@]12C (stereo partly drawn) [ERX1076]
solubility at 1 h (physchem; [26]): 6.44 µM (≈ 3.93 µg/mL)
solubility at 1 h (physchem; [27]): 6.43 µM (≈ 3.93 µg/mL)
